Key:
[1] = test system: human pluripotent stem cells (hPSCs); experiment: Mesendoderm induction: BRACHYURY immunofluorescence in hPSCs; format: cell-based
Experimental: For differentiation experiments, hESCs or hiPSCs can be grown on Geltrex, washed once with PBS and dissociated into single cells with Accutase ([…] Technologies). Cells are plated at a density of 4×10^4 cells/cm^2 onto Geltrex-coated plates in mTeSR1 medium supplemented with the ROCK inhibitor Y27632 10 μM (Stemgent). Cells are fed daily with mTeSR1 without Y27632 for 2-3 days until they reached 50% confluency. Mesendoderm differentiation-the media is changed to Advanced RPMI (A-RPMI, Invitrogen) supplemented with 1×L-glutamax and 1× penicillin/streptomycin and either CHIR99021 (CHIR, Stemgent), human Wnt3a (R&D systems), and/or human activin A (R&D systems) at the doses described. Definitive endoderm differentiation-cells are treated with […] for 24 hours, then […]+100 ng/mL of activin A for 2-3 days. Hepatic differentiation-cells at the definitive endoderm stage are treated with […]27 supplement (Invitrogen)+20 ng/mL BMP-4 (R&D systems)+10 ng/mL FGF2 (Invitrogen) for 5 days, then […]27+10 ng/mL HGF for 5 days, then HCM Hepatocyte Culture Medium (Lonza) supplemented with 20 ng/mL Oncostatin M and 10 ng/mL HGF (Peprotech) for 5 days. Pancreatic differentiation-cells at the definitive endoderm stage are treated with DMEM/F12+2% FBS (Hyclone)+50 ng/mL FGF7 (R&D systems) for 2 days, then high-glucose DMEM (Mediatech)+1% B27+2 μM retinoic acid (Sigma)+0.25 μM KAAD cyclopamine (EMD Millipore)+100 ng/mL recombinant human Noggin (R&D systems) for 4 days, then high-glucose DMEM+1% B27+100 ng/mL Noggin+300 nM indolactam V (Stemgent)+1 μM ALK5 inhibitor II (Axxora) for 4 days. Anterior foregut endoderm differentiation-cells at the definitive endoderm stage are treated with DMEM/F12+1×L-glu+1×B27+200 ng/mL Noggin+10 μM SB431542 (Stemgent) for 3 days. […] Immunofluorescence is visualized using an inverted fluorescence microscope (Nikon Eclipse Ti, Tokyo, Japan). Quantification is performed by counting a minimum of five random fields at 10× magnification. […]

[2] = test system: human pluripotent stem cells (hPSCs); experiment: Quantitative RT-PCR gene expression in CHIR-treated hPSCs; format: cell-based
Experimental: Total RNA is harvested and isolated from cells using the RNeasy Mini Kit (Qiagen). 1 μg RNA is used for reverse transcription with the M-MLV Reverse Transcriptase system (Promega), or 500 ng RNA is used for High Capacity cDNA Reverse Transcription Kits (Applied Biosystems). RT-PCR reactions can be run in duplicate using cDNA (diluted 1:10), 300 or 400 nM forward and reverse primers, and iQ SYBR Green Supermix (Biorad) or iTAQ SYBR Green Supermix (Biorad). Quantitative RT-PCR is performed using the iQ5 Multicolor Real-Time PCR Detection System (Biorad). Samples can be run with two technical replicates to ensure precision and accuracy. β-actin can be used as a housekeeping gene. […] In parallel, the induction of the mesendoderm state was accompanied by the loss of pluripotency as reflected by a reduction of OCT4 and NANOG mRNA (FIG. 1D). […] As cells migrate through the primitive streak during development, they express SNAIL, downregulate E-cadherin expression, upregulate N-cadherin expression, and undergo an epithelial-mesenchymal transition (“EMT”). […] This was associated with EMT with waves of cells migrating away from the periphery of differentiating colonies between 36-48 hours of differentiation (FIG. 1G), and a switch in cadherin expression from E-cadherin to N-cadherin (FIG. 1H).

## Cc1c[nH]c(-c2cnc(NCCNc3ccc(C#N)cn3)nc2-c2ccc(Cl)cc2Cl)n1 [CHIR99021]
[1]; 5 μM, 24 hours
  cells expressing BRACHY: 98.7±1.3%
[1]; summary statement
  efficiency of BRACHYURY+MIXL1+ mesendoderm differentiation: ~100%
[2]; CHIR for 24 or 48 hours, day 4, compared to DMSO-treated controls
  BMP-4 transcript expression: significantly upregulated
[2]; CHIR time course
  OCT4 and NANOG mRNA: reduction
[2]; as early as 24 hours after treatment
  SNAI1 expression: upregulation
[2]; within 24 hours of treatment, peak 36-48 hours, decreased by 72 hours
  expression of primitive streak genes (BRACHY, MIXL1, EOMES, FOXA2, GSC): rapidly upregulated
